Patent publication US20160243190A1, “DOSES AND METHODS FOR ADM[…]” (THERAVANCE BIOPHARMA A[…], LLC, priority 2015, published 2016)
Read-outs that look alike come from different tables or passages of the source.

How the values were obtained:
[1] = Individually predicted steady state exposure in Phase 3 subjects with PK samples; assay type: in vivo; details: human, plasma, intravenous
Procedure: This analysis was designed to describe the relationship between exposure and response in patients treated with telavancin.
The predicted telavancin PK profiles for each subject were generated using the individually estimated PK parameters determined during the population PK analysis based on the administered dose as recorded in the dataset. The individually estimated PK parameters for each subject were determined based upon the specific intra- and inter-individual errors determined using nonlinear mixed effect analysis.

[2] = Observed outcomes in Phase 3 HABP/VABP and cSSSI studies 0015, 0017, 0018, 0019; assay type: in vivo, human
From the text: The data for the simulations was based on 1771 subjects from Studies 0015, 0017, 0018 and 0019.
The data for the analysis was based upon 579 subjects from Studies 0015, 0017, 0018 and 0019. […]

[3] = CART (classification and regression tree) analysis of exposure and 28-day mortality; assay type: in vivo, human; details: HABP/VABP subjects with renal impairment
Procedure: Values were determined for each simulated clinical trial (n=100), and presented as a mean and standard deviation.
The logistic regression analysis in HABP/VABP subjects with impaired renal function (CrCl≦50 mL/min) is consistent with the results of the CART analysis in HABP/VABP subjects with renal impairment.

[4] = Logistic regression of outcomes as a function of steady state exposure (AUC0-24h) in Phase 3 subjects; assay type: in vivo, human
Procedure: Logistic regression analysis was used to parameterize the relationship between exposure (AUC0-24h) and the probability of 28-day all-cause mortality, AKI (defined as a 50% increase or greater than 0.5 mg/dL increase in serum creatinine) and clinical response at test of cure (TOC) for all Phase 3 subjects. The analysis was repeated for the individual HABP/VABP and cSSSI subpopulations.
Logistic regression analyses were conducted on the Phase 3 dataset using individually predicted exposure (AUC0-24h) and the outcomes of interest (28-day all-cause mortality, AKI, and clinical response at TOC). The analysis was performed using the generalized linear model function in R specifying a binomial variance and the logit link function.
The output produced for each logistic regression analysis includes indices of fit (i.e., null and deviance residuals, Akaike's information criterion and likelihood ratio test statistics to provide an assessment of model improvement as additional parameters are included in the model).

[5] = Population PK model for telavancin from Phase 1, 2 and 3 plasma concentrations; assay type: in vivo; details: both sexes, human, intravenous, final combined population PK model, read-out: CL, population estimate ± SE (converted)
[6] = Phase 3 HABP/VABP subjects with PK samples, n=196
[7] = Phase 3 Total with PK samples, n=579
[8] = Phase 3 all-treated HABP/VABP subjects, n=750
[9] = Phase 3 all-treated Total, n=1771
[10] = Phase 3 all-treated cSSSI subjects, n=1021
[11] = Phase 3 cSSSI subjects with PK samples, n=383

CCCCCCCCCCNCCNC1(C)CC(OC2C(Oc3c4cc5cc3Oc3ccc(cc3Cl)[C@@H](O)[C@@H](NC(=O)[C@@H](CC(C)C)NC)C(=O)N[C@@H](CC(N)=O)C(=O)N[C@H]5C(=O)N[C@H]3C(=O)N[C@H](C(=O)N[C@H](C(=O)O)c5cc(O)c(CNCP(=O)(O)O)c(O)c5-c5cc3ccc5O)[C@H](O)c3ccc(c(Cl)c3)O4)OC(CO)C(O)C2O)OC(C)C1O (stereo partly shown) [telavancin, N^3″-[2-(decylamino)ethyl]-29-[[(phosphonomethyl)amino]methyl]vancomycin]
AUC0-24 at steady state ([1]; HABP/VABP subjects, n=196, read-out: AUC0-24, mean ± SD (range)): 670 ± 231 µg·h/mL
AUC0-24 at steady state ([1]; Total, n=579, read-out: AUC0-24, mean ± SD (range)): 671 ± 214 µg·h/mL
AUC0-24 at steady state ([1]; cSSSI subjects, n=383, read-out: AUC0-24, mean ± SD (range)): 671 ± 206 µg·h/mL
AKI, Y (number of subjects) [2, 6]: Y = 39, N = 157
CURE (number of subjects) [2, 6]: CURE = 127,
MORTALITY, Y (number of subjects) [2, 6]: Y = 45, N = 151
AKI, Y (number of subjects) [2, 7]: Y = 78, N = 500,
CURE (number of subjects) [2, 7]: CURE = 449,
MORTALITY, Y (number of subjects) [2, 7]: Y = 46, N = 533
AKI, Y (number of subjects) [2, 8]: Y = 171, N = 542,
CURE (number of subjects) [2, 8]: CURE = 442,
MORTALITY, Y (number of subjects) [2, 8]: Y = 178, N = 572,
AKI, Y (number of subjects) [2, 9]: Y = 291, N = 1413,
CURE (number of subjects) [2, 9]: CURE = 1230,
MORTALITY, Y (number of subjects) [2, 9]: Y = 187, N = 1584
AKI, Y (number of subjects) [2, 10]: Y = 120, N = 871,
CURE (number of subjects) [2, 10]: CURE = 788,
MORTALITY, Y (number of subjects) [2, 10]: Y = 9, N = 1012,
AKI, Y (number of subjects) [2, 11]: Y = 39, N = 343,
CURE (number of subjects) [2, 11]: CURE = 322,
predicted exposure with greater likelihood of 28-day mortality (CART cutpoint) [3]: greater than 767 μg·hr/mL
Steady State AUC0-24 h coefficient, Estimate; clinical response at TOC ([4]; all HABP/VABP subjects): 4.50e−4
Steady State AUC0-24 h coefficient, Pr(>|z|); clinical response at TOC ([4]; all HABP/VABP subjects): 0.495
Steady State AUC0-24 h coefficient, Estimate; clinical response at TOC ([4]; all Phase 3 subjects): 4.29e−3
Steady State AUC0-24 h coefficient, Pr(>|z|); clinical response at TOC ([4]; all Phase 3 subjects): 0.368
Steady State AUC0-24 h coefficient, Estimate; clinical response at TOC ([4]; all cSSSI subjects): 4.11e−4
Steady State AUC0-24 h coefficient, Pr(>|z|); clinical response at TOC ([4]; all cSSSI subjects): 0.557
clearance [5]: 19.2 mL/min
